Experimental data taken from patent US12617799B2, “Pyrazolopyrimidinone compounds” (Orphagen Pharmaceuticals, Inc., priority 2021, dated 2026).
Read-outs that look alike come from different tables or passages of the source.

Experiments:
human SF-1 = biological target: T1, human SF-1 (Homo sapiens, UniProt Q13285); assay: SF-1 Luc assay (Gal4DBD-SF-1LBD luciferase reporter in transfected CHO-K1 cells); type: cell-based; conditions: for EC50: CHO-K1 cells transfected with GAL4-SF-1 plasmid, 40 hours incubation, read-out: hSF-1-Luc: EC50
T1 construct: expressed in transfected cells; host or cells: CHO-K1 cells (Chinese hamster ovary), transient cotransfection with pG5luc
From the text: BamHI and XbaI sites introduced by the primers […] (forward) and […] (reverse) were used for subcloning the amplicon into pFA-CMV.
Cells were routinely cultured by splitting them from 1:10 to 1:20. […] Four hours after transfection, cells were trypsinized and suspended to a concentration of 1.6×10^5 cells/ml in supplemented Ham's F-12 media.
Assays: The collected cells were resuspended in the culture medium and plated into a 384 well-white plate (Corning Life Sciences, Acton, MA) at 8,000 cells/50 μL/well.
Measurement of SF-1 Transcriptional Activity: SF-1 transcriptional activity was detected as the intracellular Luc activity using SteadyLite Plus HTS Reporter Gene Assay System. After the measurement of the cell viability, the culture media in the 384 well-plate were completely removed. Then, 30 μL of the Luc substrate solution was added into each well and incubated for 10 min at room temperature. After the incubation, luminescence of each well was measured by a microplate reader.
Calculation of the SF-1 Transcriptional Activity (% of Control): The % of control for the transcriptional activity was calculated according to the following equation: % of control=A/B×100 Equation • A: luminescence count in the test article-treated CHO cells transfected with GAL4-SF-1 plasmid • B: mean luminescence count in the vehicle-treated CHO cells transfected with GAL4-SF-1 plasmid

[1] = system: rat Leydig tumor cell line R2C; assay: R2C proliferation assay for SF-1 antagonists (EdU incorporation); type: cell-based; conditions: for EC50: read-out: R2C: EC50
Method: SF-1 regulates progenitor cell formation and survival in adult Leydig cells. Anti-proliferative effects of SF-1 antagonists using a SF-1+ rat Leydig tumor cell line, R2C, was investigated. Cell proliferation was measured by detecting DNA incorporation of EdU, a nucleoside analogue that can be fluorescently tagged after cell fixation.
Proliferation of the rat Leydig tumor cell line R2C (ATCC® CCL-97™) was assessed using 5-ethynyl-2′-deoxyuridine (EdU), a nucleoside analogue incorporated during DNA synthesis that can be fluorescently tagged after cell fixation. Cycloheximide, a protein synthesis inhibitor, was used as a positive control for the assay.
R2C cells are maintained according to a protocol provided by the American Type Culture Collection (ATCC). At the time of assay, R2C cells were diluted to 1.0 million cells/mL with culture medium (F12 medium supplemented with 2% FBS and 1% Penicillin-Streptomycin) and 50 uL of cell suspension seeded into each well of 384-well clear bottom plates. The assay plates were incubated in a humidified, 37° C., 6% CO2 atmosphere for 24 hours. Serially diluted SF-1 antagonists, cycloheximide or vehicle (DMSO) were then applied to the R2C cells and incubated in a humidified, 37° C., 6% CO2 atmosphere for two days. EdU (Invitrogen), at a final concentration of 5 μM, was added to the cells and incubated for an additional 16 hours, after which cells were fixed with 10% formalin.
Cells were then washed and permeabilized in 0.5% TritonX-100/PBS solution at RT for 1 hour. EdU incorporation was detected by labeling EdU with 6-FAM azide (Lumiprobe) using a copper (I)-catalyzed Click reaction between an azide and alkyne. The reaction mixture consists of 5 mM ascorbic acid, 1 mM CuSO4, 1 μM 6-FAM azide dissolved in PBS buffer. […] For data normalization, the average fluorescence of DMSO wells was defined as 100%, and average fluorescence of 10 μM cycloheximide wells was defined as 0%. Curve fitting and EC50 determination were performed using the variable slope sigmoidal dose-response analysis.
R2C cells were routinely cultured in R2C culture medium. To assay SF-1 antagonist inhibitory activity, R2C cells were resuspended in the R2C plating medium and plated into a 384 well-clear bottom black plate at 20,000 cells/50 μL/well. […] 10 μL EdU plating solution were then dispensed into each well of assay plate incubated at 37° C., 6% CO2 for two days.
R2C proliferation is measured by detecting the fluorescent labelled EdU. The R2C assay plates were fixed by dispense 60 μL of 10% formalin into each well, and the plates were incubated at room temperature for 1 hour on an orbital shaker. The plates were washed with 80 μL of PBS three times, and cells were permeabilized by treating with 100 μL of PBS-0.5% TritonX-100 at RT for 1 hour on an orbital shaker. The plates were washed with 80 μL of PBS three times, and after the last wash, 25 μL of PBS was dispensed into each well. 25 μL of 2× mounting mix solution was then added into each well of fixed cells, and the plates were incubated at RT for 30 min in the dark on an orbital shaker. The cells were washed with 80 μL of PBS, three times, and after the last wash, 25 μL of PBS was dispensed into each well. […] The cells were washed with 80 μL of PBS, three times, and after the last wash, 50 μL of PBS was dispensed into each well. Assay plates were sealed with aluminum foil, and fluorescence was measured using a Envision microplate reader.
The % of control for the proliferation activity was calculated according to the following equation: % of control=100×(A−C)/(B−C) Equation • A: fluorescence count in the test article-treated R2C cells • B: mean fluorescence count in the vehicle-treated R2C cells • C: mean fluorescence count in the 10 μM cycloheximide-treated R2C cells

T1 sequence (Q13285 198-461 limits assumed): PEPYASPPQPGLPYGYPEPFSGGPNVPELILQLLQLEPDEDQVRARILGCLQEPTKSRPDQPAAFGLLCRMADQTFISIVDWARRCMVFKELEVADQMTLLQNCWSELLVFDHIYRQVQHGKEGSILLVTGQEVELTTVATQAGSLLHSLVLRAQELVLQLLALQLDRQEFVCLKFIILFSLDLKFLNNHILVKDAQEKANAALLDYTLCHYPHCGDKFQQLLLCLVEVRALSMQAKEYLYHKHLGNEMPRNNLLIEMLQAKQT

| SMILES | EC50 (human SF-1) [nM] | EC50 ([1]; R2C) [nM] | EC50 ([1]; R2C cells, EdU incorporation) [nM] | inhibition at 8 µM (human SF-1; CHO-K1, read-out: hSF-1-Luc: inhibition at 8 uM) [%] | inhibition at 8 µM ([1]; Leydig) [%] |
| --- | --- | --- | --- | --- | --- |
| COc1ccc(NC(=O)Cn2cnc3c(Nc4ccc(Cl)cc4)nn(C)c3c2=O)cc1F [Compound 71, 2-(3-((4-chlorophenyl)amino)-1-methyl-7-oxo-1,7-dihydro-6H-pyrazolo[4,3-d]pyrimidin-6-yl)-N-(3-fluoro-4-methoxyphenyl)acetamide] | < 200 | < 200 | – | – | – |
| Cn1nc(Nc2ccc(C(F)(F)F)nc2)c2ncn(CC(=O)N[C@H]3CC[C@H](OC(F)F)CC3)c(=O)c21 [Compound 65, N-((1r,4r)-4-(difluoromethoxy)cyclohexyl)-2-(1-methyl-7-oxo-3-((6-(trifluoromethyl)pyridin-3-yl)amino)-1,7-dihydro-6H-pyrazolo[4,3-d]pyrimidin-6-yl)acetamide] | < 200 | – | 200 to 1000 | – | – |
| Cn1nc(Nc2ccc(C(F)(F)F)cc2)c2ncn(CC(=O)N[C@H]3CC[C@H](OCC4CCOCC4)CC3)c(=O)c21 [Compound 39, 2-(1-methyl-7-oxo-3-((4-(trifluoromethyl)phenyl)amino)-1,7-dihydro-6H-pyrazolo[4,3-d]pyrimidin-6-yl)-N-((1r,4r)-4-((tetrahydro-2H-pyran-4-yl)methoxy)cyclohexyl)acetamide] | < 200 | – | < 200 | – | – |
| Cn1nc(Nc2ccc(C(F)(F)F)cc2)c2ncn(CC(=O)N[C@H]3CC[C@@H](OC(F)F)CC3)c(=O)c21 [Compound 36, N-((1s,4s)-4-(difluoromethoxy)cyclohexyl)-2-(1-methyl-7-oxo-3-((4-(trifluoromethyl)phenyl)amino)-1,7-dihydro-6H-pyrazolo[4,3-d]pyrimidin-6-yl)acetamide] | < 200 | 200 to 1000 | – | – | – |
| Cn1nc(Nc2ccc(C(F)(F)F)cc2)c2ncn(CC(=O)Nc3ccc(C(C)(C)C(N)=O)cc3)c(=O)c21 [Compound 21, 2-methyl-2-(4-(2-(1-methyl-7-oxo-3-((4-(trifluoromethyl)phenyl)amino)-1,7-dihydro-6H-pyrazolo[4,3-d]pyrimidin-6-yl)acetamido)phenyl)propanamide] | < 200 | – | < 200 | – | – |
| COc1ccc(NC(=O)Cn2cnc3c(Nc4ccc(OC(C)C)cc4)nn(C)c3c2=O)cc1F [Compound 70, N-(3-fluoro-4-methoxyphenyl)-2-(3-((4-isopropoxyphenyl)amino)-1-methyl-7-oxo-1,7-dihydro-6H-pyrazolo[4,3-d]pyrimidin-6-yl)acetamide] | < 200 | – | 1000 to 10000 | – | – |
| COc1ccc(NC(=O)Cn2cnc3c(Nc4ccc(C(F)(F)F)cn4)n[nH]c3c2=O)cc1F [Compound 63, N-(3-fluoro-4-methoxyphenyl)-2-(7-oxo-3-((5-(trifluoromethyl)pyridin-2-yl)amino)-1,7-dihydro-6H-pyrazolo[4,3-d]pyrimidin-6-yl)acetamide] | – | – | – | 75 | 19 |
| Cn1nc(Nc2ccc(C(F)(F)F)cc2)c2ncn(CC(=O)N[C@@H]3CCC[C@@H](OC(F)F)C3)c(=O)c21 (single isomer, unassigned) [Compound 44] | < 200 | < 200 | – | – | – |
| COc1ccc(NC(=O)Cn2cnc3c(Nc4ccc(C(F)(F)F)cc4)nn(C(C)C)c3c2=O)cc1F [Compound 98, N-(3-fluoro-4-methoxyphenyl)-2-(1-isopropyl-7-oxo-3-((4-(trifluoromethyl)phenyl)amino)-1,7-dihydro-6H-pyrazolo[4,3-d]pyrimidin-6-yl)acetamide] | 200 to 1000 | 1000 to 10000 | – | – | – |
| Cn1nc(Nc2ccc(C(F)(F)F)cc2)c2ncn(CC(=O)Nc3ccc(C(C)(C)S(C)(=O)=O)cc3)c(=O)c21 [Compound 12, 2-(1-methyl-7-oxo-3-((4-(trifluoromethyl)phenyl)amino)-1,7-dihydro-6H-pyrazolo[4,3-d]pyrimidin-6-yl)-N-(4-(2-(methylsulfonyl)propan-2-yl)phenyl)acetamide] | < 200 | – | < 200 | – | – |
| C[C@@H](O)CO[C@H]1CC[C@H](NC(=O)Cn2cnc3c(Nc4ccc(C(F)(F)F)cc4)nn(C)c3c2=O)CC1 [Compound 23, N-((1R,4r)-4-((R)-2-hydroxypropoxy)cyclohexyl)-2-(1-methyl-7-oxo-3-((4-(trifluoromethyl)phenyl)amino)-1,7-dihydro-6H-pyrazolo[4,3-d]pyrimidin-6-yl)acetamide] | < 200 | – | < 200 | – | – |
| C[C@@H](NC(=O)Cn1cnc2c(Nc3ccc(C(F)(F)F)cc3)nn(C)c2c1=O)C1CCOCC1 [Compound 16, (R)-2-(1-methyl-7-oxo-3-((4-(trifluoromethyl)phenyl)amino)-1,7-dihydro-6H-pyrazolo[4,3-d]pyrimidin-6-yl)-N-(1-(tetrahydro-2H-pyran-4-yl)ethyl)acetamide] | 200 to 1000 | – | 1000 to 10000 | – | – |
| Cn1nc(Nc2ccc(C(F)(F)F)cc2)c2ncn(CC(=O)NC3CCOCC3)c(=O)c21 [Compound 13, 2-(1-methyl-7-oxo-3-((4-(trifluoromethyl)phenyl)amino)-1,7-dihydro-6H-pyrazolo[4,3-d]pyrimidin-6-yl)-N-(tetrahydro-2H-pyran-4-yl)acetamide] | < 200 | – | 200 to 1000 | – | – |
| CCn1nc(Nc2ccc(C(F)(F)F)cc2)c2ncn(CC(=O)N[C@H]3CC[C@H](OC(F)F)CC3)c(=O)c21 [Compound 80, N-((1r,4r)-4-(difluoromethoxy)cyclohexyl)-2-(1-ethyl-7-oxo-3-((4-(trifluoromethyl)phenyl)amino)-1,7-dihydro-6H-pyrazolo[4,3-d]pyrimidin-6-yl)acetamide] | < 200 | < 200 | – | – | – |
| COc1ccc(NC(=O)Cn2cnc3c(Nc4ccc(C(F)(F)F)cc4)nn(C)c3c2=O)cc1F [Compound 11, N-(3-fluoro-4-methoxyphenyl)-2-(1-methyl-7-oxo-3-((4-(trifluoromethyl)phenyl)amino)-1,7-dihydro-6H-pyrazolo[4,3-d]pyrimidin-6-yl)acetamide] | < 200 | – | < 200 | – | – |
| Cn1nc(Nc2ccc(C(F)(F)F)cn2)c2ncn(CC(=O)N[C@H]3CC[C@H](OC(F)F)CC3)c(=O)c21 [Compound 55, N-((1r,4r)-4-(difluoromethoxy)cyclohexyl)-2-(1-methyl-7-oxo-3-((5-(trifluoromethyl)pyridin-2-yl)amino)-1,7-dihydro-6H-pyrazolo[4,3-d]pyrimidin-6-yl)acetamide] | 200 to 1000 | – | 1000 to 10000 | – | – |
| Cn1nc(Nc2ccc(C(F)(F)F)nc2)c2ncn(CC(=O)N[C@H]3CC[C@H](OCC(C)(C)O)CC3)c(=O)c21 [Compound 68, N-((1r,4r)-4-(2-hydroxy-2-methylpropoxy)cyclohexyl)-2-(1-methyl-7-oxo-3-((6-(trifluoromethyl)pyridin-3-yl)amino)-1,7-dihydro-6H-pyrazolo[4,3-d]pyrimidin-6-yl)acetamide] | 200 to 1000 | – | 1000 to 10000 | – | – |
